Test results as given in patent US20250152585A1, “PHARMACEUTICAL COMPOUND” (Duke Street Bio Limited, priority 2022, published 2025).
Like-named read-outs stand apart in the source and are kept apart here.

What was measured:
[1] = target: T1, N-terminally FLAG-tagged PARP2 (amino acids 1-583) (Homo sapiens, UniProt Q9UGN5); test: PARP2 probe displacement HTRF assay; format: binding; settings: binned Kd
T1 construct: N-terminally FLAG-tagged PARP2 (amino acids 1-583)
Procedure: Data analysis was performed identical as for PARP1.

[2] = target: T2, full length N-terminally FLAG-tagged PARP1 (Homo sapiens, UniProt P09874); test: PARP1 probe displacement HTRF assay; settings: for Selectivity: PARP1 over PARP2, ratio Kd (PARP2)/Kd (PARP1); for Kd: binned Kd
T2 sequence (P09874 whole entry): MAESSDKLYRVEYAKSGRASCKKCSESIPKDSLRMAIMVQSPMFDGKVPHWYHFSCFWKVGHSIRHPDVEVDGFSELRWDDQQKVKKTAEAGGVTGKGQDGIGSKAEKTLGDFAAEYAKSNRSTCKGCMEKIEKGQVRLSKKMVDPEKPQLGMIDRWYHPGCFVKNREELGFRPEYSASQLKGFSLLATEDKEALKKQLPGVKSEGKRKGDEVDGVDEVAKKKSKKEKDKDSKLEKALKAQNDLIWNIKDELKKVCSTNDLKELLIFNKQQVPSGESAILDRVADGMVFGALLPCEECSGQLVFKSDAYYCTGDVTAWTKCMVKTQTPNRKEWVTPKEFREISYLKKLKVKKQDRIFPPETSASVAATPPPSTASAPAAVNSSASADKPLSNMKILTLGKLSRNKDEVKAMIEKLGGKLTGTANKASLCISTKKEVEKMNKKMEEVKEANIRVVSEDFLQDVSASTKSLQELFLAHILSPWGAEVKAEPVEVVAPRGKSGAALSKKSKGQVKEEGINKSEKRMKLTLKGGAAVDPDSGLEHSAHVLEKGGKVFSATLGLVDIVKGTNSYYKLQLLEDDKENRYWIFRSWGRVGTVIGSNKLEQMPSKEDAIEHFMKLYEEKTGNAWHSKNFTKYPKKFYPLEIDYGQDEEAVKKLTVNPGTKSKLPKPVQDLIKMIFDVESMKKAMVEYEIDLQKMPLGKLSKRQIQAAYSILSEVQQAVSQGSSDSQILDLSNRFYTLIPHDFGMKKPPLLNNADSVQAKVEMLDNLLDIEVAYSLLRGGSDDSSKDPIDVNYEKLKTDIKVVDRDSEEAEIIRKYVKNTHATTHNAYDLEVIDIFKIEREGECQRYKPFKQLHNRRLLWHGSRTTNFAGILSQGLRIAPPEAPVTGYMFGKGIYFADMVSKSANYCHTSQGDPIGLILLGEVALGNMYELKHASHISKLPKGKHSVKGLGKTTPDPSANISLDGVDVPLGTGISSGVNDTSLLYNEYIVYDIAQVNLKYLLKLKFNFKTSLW

[3] = target: T2, full length N-terminally FLAG-tagged PARP1; test: PARP1 biochemical DELFIA assay (auto-PARylation); parameters: recombinant full length human N-terminally FLAG-tagged PARP1
[4] = read-out: PARP1 HTRF, PARP1 probe displacement HTRF
[5] = binned IC50, PARP1 biochemical DELFIA assay
[6] = read-out: PARP1 HTRF, probe displacement HTRF
[7] = binned IC50, biochemical auto-PARylation assay
[8] = PARP1 HTRF, probe displacement HTRF

T1 sequence (Q9UGN5 whole entry, the tested form may be a part): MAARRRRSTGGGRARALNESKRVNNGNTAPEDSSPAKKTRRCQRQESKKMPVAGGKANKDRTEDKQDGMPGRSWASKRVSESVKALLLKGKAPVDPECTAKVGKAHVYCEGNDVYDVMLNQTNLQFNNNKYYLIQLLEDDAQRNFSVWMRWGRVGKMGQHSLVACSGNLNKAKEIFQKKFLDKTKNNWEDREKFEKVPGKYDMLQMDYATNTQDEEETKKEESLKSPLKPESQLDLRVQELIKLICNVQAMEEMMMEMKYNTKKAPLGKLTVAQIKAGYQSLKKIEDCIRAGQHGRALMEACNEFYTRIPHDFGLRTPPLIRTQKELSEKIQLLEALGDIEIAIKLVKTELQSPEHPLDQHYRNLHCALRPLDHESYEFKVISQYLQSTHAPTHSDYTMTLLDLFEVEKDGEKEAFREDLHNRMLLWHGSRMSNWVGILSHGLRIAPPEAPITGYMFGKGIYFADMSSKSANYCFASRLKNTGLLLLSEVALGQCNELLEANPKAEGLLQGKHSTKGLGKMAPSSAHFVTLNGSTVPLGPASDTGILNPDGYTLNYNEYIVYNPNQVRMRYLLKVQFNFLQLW

Row | Kd ([1]; PARP2 probe displacement HTRF) [nM] | Kd [2, 4] [nM] | IC50 [3, 5] [nM] | Kd ([1]; probe displacement HTRF) [nM] | Kd [2, 6] [nM] | IC50 [3, 7] [nM] | Kd [2, 8] [nM] | Kd ([2]; PARP1 HTRF, PARP1 probe displacement HTRF) [nM] | SMILES | Selectivity ([2]; probe displacement HTRF)
1 | 1000 to 10000 | < 10 | < 10 | – | – | – | – | – | CNC(=O)c1ccc(N2CCC(N3CCC(c4ccc(C(C)C)c(=O)[nH]4)C3)CC2)cn1 (racemic) [Compound 142rac] | +++ (+++ indicate a value of at least 100)
2 | > 10000 | 100 to 1000 | 100 to 1000 | – | – | – | – | – | CNC(=O)c1ccc(N2CCC(N3CCC(c4nc5onc(C(F)(F)F)c5c(=O)[nH]4)C3)CC2)cn1 (single isomer, unassigned) [Compound 176a] | + (+ indicates a value of 10 to less than 50)
3 | – | – | – | 100 to 1000 | < 10 | < 10 | – | – | CCc1ccc(C2CCN(C3CCN(c4cnc(C(=O)NC)nc4Cl)CC3)C2)[nH]c1=O (racemic) [Compound 242rac] | ++ (++ indicates a value of 50 to less than 100)
4 | > 10000 | 100 to 1000 | 100 to 1000 | – | – | – | – | – | CNC(=O)c1ccc(N2CCC(N3CCCC(c4nc5ncccc5c(=O)[nH]4)C3)CC2)cn1 (single isomer, unassigned) [Compound 98b] | + (+ indicates a value of 10 to less than 50)
5 | 1000 to 10000 | 10 to 100 | 10 to 100 | – | – | – | – | – | CNC(=O)c1ccc(N2CCC(N3CCC(c4cc5ccc(F)cc5c(=O)[nH]4)C3)CC2)nn1 (single isomer, unassigned) [Compound 197b] | +++ (+++ indicate a value of at least 100)
6 | 100 to 1000 | < 10 | 10 to 100 | – | – | – | – | – | CNC(=O)c1ccc(N2CCC(N3CCC(c4nc5ccc(Cl)cc5c(=O)[nH]4)C3)CC2)cn1 (single isomer, unassigned) [Compound 68b] | + (+ indicates a value of 10 to less than 50)
7 | – | – | – | > 10000 | 100 to 1000 | 100 to 1000 | – | – | CNC(=O)c1ccc(N2CCC(N3CCCC(O)(c4nc5ccccc5c(=O)[nH]4)C3)CC2)cn1 (single isomer, unassigned) [Compound 327b] | − (− indicates a value of less than 10)
8 | 1000 to 10000 | < 10 | < 10 | – | – | – | – | – | CNC(=O)c1ccc(N2CCC(N3CCC(c4cc5cccc(F)c5c(=O)[nH]4)C3)CC2)c(Cl)n1 (single isomer, unassigned) [Compound 183a] | +++ (+++ indicate a value of at least 100)
9 | – | – | – | 100 to 1000 | 10 to 100 | 10 to 100 | – | – | CS(=O)(=O)Nc1ccc(N2CCC(N3CCC(c4cc5ccccc5c(=O)[nH]4)C3)CC2)cn1 (single isomer, unassigned) [Compound 252b] | + (+ indicates a value of 10 to less than 50)
10 | > 10000 | 10 to 100 | 10 to 100 | – | – | – | – | – | CCc1ccc(C2CCN(C3CCN(c4ccc(C(=O)NC)nc4C(F)F)CC3)C2)[nH]c1=O (single isomer, unassigned) [Compound 164b] | +++ (+++ indicate a value of at least 100)
11 | 1000 to 10000 | 100 to 1000 | 10 to 100 | – | – | – | – | – | N#Cc1ccc(N2CCC(N3CCCC(c4nc5ccccc5c(=O)[nH]4)C3)CC2)cn1 (single isomer, unassigned) [Compound 70a] | + (+ indicates a value of 10 to less than 50)
12 | – | – | – | 100 to 1000 | < 10 | < 10 | – | – | CCc1ccc(C2CCN(C3CCN(c4ccc(OC(F)F)nc4)CC3)C2)[nH]c1=O (single isomer, unassigned) [Compound 382b] | +++ (+++ indicate a value of at least 100)
13 | 1000 to 10000 | < 10 | < 10 | – | – | – | – | – | CNC(=O)c1ccc(N2CCC(N3CCC(c4nc5ccccc5c(=O)[nH]4)C3)CC2)c(C(F)(F)F)n1 (single isomer, unassigned) [Compound 139a] | +++ (+++ indicate a value of at least 100)
14 | – | – | – | 100 to 1000 | 10 to 100 | 10 to 100 | – | – | N#Cc1ccc(N2CCC(N3CCC(c4cc5cccc(F)c5c(=O)[nH]4)C3)CC2)nc1 (single isomer, unassigned) [Compound 340b] | + (+ indicates a value of 10 to less than 50)
15 | 1000 to 10000 | < 10 | < 10 | – | – | – | – | – | CNC(=O)c1ccc(N2CCC(N3CCC(c4cc5ccc(F)cc5c(=O)[nH]4)C3)CC2)c(C)n1 (single isomer, unassigned) [Compound 196b] | +++ (+++ indicate a value of at least 100)
16 | > 10000 | 100 to 1000 | 100 to 1000 | – | – | – | – | – | CNC(=O)c1ccc(N2CCC(N3CCC(c4ccc(CC(F)(F)F)c(=O)[nH]4)C3)CC2)cn1 (single isomer, unassigned) [Compound 188a] | + (+ indicates a value of 10 to less than 50)
17 | > 10000 | 10 to 100 | 10 to 100 | – | – | – | – | – | CNC(=O)c1ccc(N2CCC(N3CCCC(c4nc5ncccc5c(=O)[nH]4)C3)CC2)cn1 (single isomer, unassigned) [Compound 98a] | +++ (+++ indicate a value of at least 100)

Row | Kd ([1]; PARP2 probe displacement HTRF) [nM] | Kd [2, 4] [nM] | IC50 [3, 5] [nM] | Kd ([1]; probe displacement HTRF) [nM] | Kd [2, 6] [nM] | IC50 [3, 7] [nM] | Kd [2, 8] [nM] | Kd ([2]; PARP1 HTRF, PARP1 probe displacement HTRF) [nM] | SMILES | Selectivity ([2]; probe displacement HTRF)
18 | – | – | – | 10 to 100 | < 10 | < 10 | – | – | CNC(=O)c1ccc(N2CCC(N3CCC(c4[nH]c(=O)c5c(F)cccc5c4F)C3)CC2)c(F)n1 (single isomer, unassigned) [Compound 402b] | +++ (+++ indicate a value of at least 100)
19 | 1000 to 10000 | < 10 | < 10 | – | – | – | – | – | CNC(=O)c1ccc(N2CCC(N3CCCC(c4nc5ccccc5c(=O)[nH]4)CC3)CC2)cn1 (racemic) [Compound 102rac] | +++ (+++ indicate a value of at least 100)
20 | – | – | – | 10 to 100 | – | < 10 | < 10 | – | CNC(=O)c1ccc(N2CCC(N3CC4(c5nc6cccc(C(F)(F)F)c6c(=O)[nH]5)CC3C4)CC2)cn1 [Compound 394] | + (+ indicates a value of 10 to less than 50)
21 | 1000 to 10000 | – | 10 to 100 | – | – | – | – | 10 to 100 | CNC(=O)c1ccc(N2CCC(CN3CC4(c5nc6ccccc6c(=O)[nH]5)CC3C4)CC2)cn1 [Compound 193] | +++ (+++ indicate a value of at least 100)
22 | 1000 to 10000 | < 10 | < 10 | – | – | – | – | – | CNC(=O)c1ccc(N2CCC(N3CCCC(c4nc5ccccc5c(=O)[nH]4)C3)CC2)c(F)n1 (racemic) [Compound 103rac] | +++ (+++ indicate a value of at least 100)
23 | – | – | – | 100 to 1000 | < 10 | < 10 | – | – | N#Cc1ccc(N2CCC(N3CCC(c4cc5cccc(F)c5c(=O)[nH]4)C3)CC2)c(Cl)c1 (single isomer, unassigned) [Compound 378a] | +++ (+++ indicate a value of at least 100)
24 | > 10000 | 1000 to 10000 | 1000 to 10000 | – | – | – | – | – | CNC(=O)c1cnc(N2CCC(N3CCCC(c4nc5ccccc5c(=O)[nH]4)C3)CC2)cn1 (single isomer, unassigned) [Compound 99a] | − (− indicates a value of less than 10)
25 | > 10000 | 1000 to 10000 | 1000 to 10000 | – | – | – | – | – | CNC(=O)c1ccc(N2CCC(N3CCC(c4ccc(OC)c(=O)[nH]4)C3)CC2)cn1 (single isomer, unassigned) [Compound 148b] | − (− indicates a value of less than 10)
26 | – | – | – | 100 to 1000 | 10 to 100 | 10 to 100 | – | – | O=c1[nH]c(C2CCN(C3CCN(c4ccc(C5=NCCN5)cc4)CC3)C2)nc2ccccc12 (racemic) [Compound 307rac] | − (− indicates a value of less than 10)
27 | > 10000 | 100 to 1000 | 100 to 1000 | – | – | – | – | – | CNC(=O)c1ccc(N2CCC(N3CCCC(c4ncc(CC(F)(F)F)c(=O)[nH]4)C3)CC2)cn1 (single isomer, unassigned) [Compound 212a] | + (+ indicates a value of 10 to less than 50)
28 | 100 to 1000 | < 10 | < 10 | – | – | – | – | – | CCc1ccc(C2CCN(C3CCN(c4ccc(C(=O)NCCF)nc4)CC3)C2)[nH]c1=O (single isomer, unassigned) [Compound 165a] | +++ (+++ indicate a value of at least 100)
29 | – | – | – | 100 to 1000 | < 10 | < 10 | – | – | CNC(=O)c1ncc(N2CCC(N3CCC(c4cc5ccc(F)cc5c(=O)[nH]4)C3)CC2)c(C(F)(F)F)n1 (single isomer, unassigned) [Compound 266a] | +++ (+++ indicate a value of at least 100)
30 | – | – | – | 10 to 100 | < 10 | < 10 | – | – | O=C(NCC(F)F)c1ccc(N2CCC(N3CCC(c4cc5cccc(F)c5c(=O)[nH]4)C3)CC2)c(F)n1 (single isomer, unassigned) [Compound 390b] | ++ (++ indicates a value of 50 to less than 100)
31 | > 10000 | 100 to 1000 | 100 to 1000 | – | – | – | – | – | CNC(=O)c1ccc(N2CCC(N3CCCC(c4nc5sc(C)c(C)c5c(=O)[nH]4)C3)CC2)cn1 (single isomer, unassigned) [Compound 199b] | + (+ indicates a value of 10 to less than 50)
32 | 100 to 1000 | 10 to 100 | 10 to 100 | – | – | – | – | – | CNC(=O)c1ccc(N2CCC(N3CCC(c4nc5c(F)ccc(F)c5c(=O)[nH]4)C3)CC2)cn1 (single isomer, unassigned) [Compound 182a] | + (+ indicates a value of 10 to less than 50)
33 | – | – | – | 1000 to 10000 | – | < 10 | < 10 | – | CNC(=O)c1ccc(N2CCC(N3CC4(c5nc6ncccc6c(=O)[nH]5)CC3C4)CC2)cn1 [Compound 311] | +++ (+++ indicate a value of at least 100)
